In patent publication US9422283B2, “Salts and polymorphs of a substituted imidazopyridinyl-aminopyridine compound” (ArQule, Inc., priority 2014, dated 2016):
Structures can show the parent of a compound that is named as a salt.

Experiments:
Type in all cases: physicochemical
[1] = Thermodynamic aqueous solubility
Experimental: Aqueous solubility was determined by suspending sufficient compound in water to give a maximum final concentration of ≧10 mg/ml of the parent free-form of the compound. The suspension was equilibrated at 25° C. for 24 hours then the pH was measured. The suspension was then filtered through a glass fiber C filter. The filtrate was then diluted by an appropriate factor e.g., 101. Quantitation was by HPLC with reference to a standard solution of approximately 0.25 mg/ml in DMSO. Different volumes of the standard, diluted and undiluted sample solutions were injected. The solubility was calculated using the peak areas determined by integration of the peak found at the same retention time as the principal peak in the standard injection.
Analysis was performed on an Agilent HP1100 series system equipped with a diode array detector and using ChemStation software vB.02.01-SR1.

[2] = Gravimetric Vapor Sorption (GVS)
Experimental: Sorption isotherms were obtained using a SMS DVS Intrinsic moisture sorption analyzer, controlled by DVS Intrinsic Control software v1.0.0.30. The sample temperature was maintained at 25° C. by the instrument controls. The humidity was controlled by mixing streams of dry and wet nitrogen, with a total flow rate of 200 ml/min. The relative humidity was measured by a calibrated Rotronic probe (dynamic range of 1.0-100% RH), located near the sample. The weight change, (mass relaxation) of the sample as a function of % RH was constantly monitored by the microbalance (accuracy ±0.005 mg).
Typically 5-20 mg of sample was placed in a tared mesh stainless steel basket under ambient conditions. The sample was loaded and unloaded at 40% RH and 25° C. (typical room conditions). A moisture sorption isotherm was performed as outlined below (4 scans giving 2 complete cycles). The standard isotherm was performed at 25° C. at 10% RH intervals over a 0-90% RH range. Data analysis was undertaken in Microsoft Excel using DVS Analysis Suite v6.0.0.7.
The sample was recovered after completion of the isotherm and re-analysed by XRPD. 7.2. Dynamic Vapour Sorption (DVS)

[3] = Storage stability of free base and salts (XRPD, IC, 1H NMR pre- and post-storage)
[4] = Aqueous solubility studies of bis-mesylate forms (slurry in deionised water, HPLC, XRPD); conditions: about 24 hours, ambient temperature
Experimental: Purity and concentration analyses were carried out using the following method:
• Pan Number 186003045 Column Temperature: 25° C. Autosampler Temperature: 5° C. Detection: 226 nm Mobile Phase A: 95:5:0.1% Water:Methanol:TFA Mobile Phase B: 95:5:0.1% Methanol:Water:TFA Gradient: See table below for conditions Flow Rate: 1.0 mL/minute Injection Volume: 10 μl Analysis Time: 36 minutes Re-equilibration Time: 4 minutes Data Collection time: 36 minutes Needle Wash: 100% Methanol
Slurries of Form A, Form B, Form C, Form D, Form E and Form I were created in deionised water and shaken for about 24 hours at ambient temperature (about 22° C.). The resulting solutions were then analyzed by HPLC and the aqueous solubility was determined. The remaining solids were analyzed by XRPD to determine if any form changes had occurred during slurrying.

[5] = Dynamic Vapour Sorption (DVS)
Experimental: Approximately 10 mg of sample was placed into a mesh vapour sorption balance pan and loaded into a DVS-1 dynamic vapour sorption balance by Surface Measurement Systems. The sample was subjected to a ramping profile of 0-90%, 90-0% relative humidity (RH) at 10% increments for anhydrous samples and 30-90%, 90-0%, 0-90%, 90-0% for hydrated samples, maintaining the sample at each step until a stable weight had been achieved (99.5% step completion). The weight changes during the sorption/desorption cycles were plotted, allowing the hygroscopic nature of the sample to be determined.

[6] = Stability testing of bis-mesylate forms for 1 week (XRPD, HPLC purity)
Experimental: Form A, Form B, Form C, Form D, Form E and Form I were exposed to environments of 40° C./75% RH, ambient light (about 22° C.) and elevated temperature (80° C.) for 1 week to determine the stability. The resulting solids were analyzed by XRPD to establish if any form changes had occurred and by HPLC to determine purity.

Nc1ncccc1-c1nc2ccc(-c3ccccc3)nc2n1-c1ccc(C2(N)CCC2)cc1 [Compound A mesylate salt, 3-(3-(4-(1-aminocyclobutyl)phenyl)-5-phenyl-3H-imidazo[4,5-b]pyridin-2-yl)pyridin-2-amine]
solubility at 5 min ([1]; water, 25 °C, thermodynamic from solid, in 5 min, pH 2.1): > 50 mg/mL | change in XRPD after GVS [2]: No change in XRPD after GVS | change after storage ([3]; 40° C. and 75% RH, 7 days, XRPD and 1H NMR): No change in XRPD or ^1H NMR

Nc1ncccc1-c1nc2ccc(-c3ccccc3)nc2n1-c1ccc(C2(N)CCC2)cc1 [Compound A tris-HCl salt, 3-(3-(4-(1-aminocyclobutyl)phenyl)-5-phenyl-3H-imidazo[4,5-b]pyridin-2-yl)pyridin-2-amine]
solubility in water (qualitative) [1]: highly soluble in water | change of salt under storage ([3]; stability study under storage, XRPD): partially transformed to bis-HCl salt and/or mono-HCl salt

Nc1ncccc1-c1nc2ccc(-c3ccccc3)nc2n1-c1ccc(C2(N)CCC2)cc1 [Compound A free base, 3-(3-(4-(1-aminocyclobutyl)phenyl)-5-phenyl-3H-imidazo[4,5-b]pyridin-2-yl)pyridin-2-amine]
solubility in water (qualitative) [1]: insoluble in water

Nc1ncccc1-c1nc2ccc(-c3ccccc3)nc2n1-c1ccc(C2(N)CCC2)cc1 [Compound A HCl salt, 3-(3-(4-(1-aminocyclobutyl)phenyl)-5-phenyl-3H-imidazo[4,5-b]pyridin-2-yl)pyridin-2-amine]
solubility at 24 h ([1]; water, 25 °C, thermodynamic from solid, pH 1.2, max conc. 50 mg/ml): 8300 µg/mL | GVS water uptake ([2]; partial run, from 40-90% RH): partial run: ~18 wt % water uptake | HCl content by IC after storage ([3]; 40° C. and 75% RH, 7 days, 2.2 equi. HCl before storage): IC converted to 1.6 equi. HCl

Nc1ncccc1-c1nc2ccc(-c3ccccc3)nc2n1-c1ccc(C2(N)CCC2)cc1 [Form I, 3-(3-(4-(1-aminocyclobutyl)phenyl)-5-phenyl-3H-imidazo[4,5-b]pyridin-2-yl)pyridin-2-amine]
polymorphic form after slurrying in deionised water (XRPD) [4]: converted to Form E | DVS (summary Table 21) [5]: Hydration occurs | DVS desorption behaviour / hysteresis [5]: gradual loss of water/dehydration below 50% RH | polymorphic form after DVS analysis (XRPD) [5]: Form I post | DVS water uptake ([5]; sorption cycle, between 40% and 50% RH): about 10% | HPLC purity after stability test ([6]; 40° C./75% RH): about 99.8% | polymorphic form after stability test (XRPD) ([6]; 40° C./75% RH): conversion to Form J | HPLC purity after stability test ([6]; 80° C.): about 99.9% | polymorphic form after stability test (XRPD) ([6]; 80° C.): remained unchanged | polymorphic form after stability test (XRPD) ([6]; ambient light (about 22° C.)): remained unchanged | HPLC purity after stability test ([6]; ambient temperature): about 99.6%

Nc1ncccc1-c1nc2ccc(-c3ccccc3)nc2n1-c1ccc(C2(N)CCC2)cc1 [Form 1, 3-(3-(4-(1-aminocyclobutyl)phenyl)-5-phenyl-3H-imidazo[4,5-b]pyridin-2-yl)pyridin-2-amine]
water uptake (GVS) ([2]; 0-90% RH): < 0.8 %, w/w | water absorption upon storage ([2]; FIG. 5 GVS isotherm): Minimal water absorption | stability under storage ([3]; 25° C. and 0-96% RH, XRPD): stable | polymorphic form change on storage ([3]; 40° C. and 75% RH, one week, XRPD): transformed to Form 2

Nc1ncccc1-c1nc2ccc(-c3ccccc3)nc2n1-c1ccc(C2(N)CCC2)cc1 [Form B, 3-(3-(4-(1-aminocyclobutyl)phenyl)-5-phenyl-3H-imidazo[4,5-b]pyridin-2-yl)pyridin-2-amine]
polymorphic form after slurrying in deionised water (XRPD) [4]: converted to Form E | DVS (summary Table 21) [5]: Gradual uptake | DVS desorption behaviour / hysteresis [5]: gradual loss from 90% down to 0% RH | HPLC purity after stability test ([6]; 40° C./75% RH): about 99.8% | polymorphic form after stability test (XRPD) ([6]; 40° C./75% RH): converted to Form J | HPLC purity after stability test ([6]; 80° C.): about 99.8% | polymorphic form after stability test (XRPD) ([6]; 80° C.): Form I | polymorphic form after stability test (XRPD) ([6]; ambient light (about 22° C.)): remained unchanged | HPLC purity after stability test ([6]; ambient temperature): about 99.7%
